Measured values published in ChEMBL document CHEMBL4680099, “Discovery of Leucyladenylate Sulfamates as Novel Leucyl-tRNA Synthetase (LRS)-Targeted Mammalian Target of Rapamycin Complex 1 (mTORC1) Inhibitors” (J Med Chem, 2016).
Active and inactive are the calls of the source. The calls are words filed in the database; no cut-off is given here.

Key:
[1] = system: K562; assay: Cytotoxicity in human K562 cells by sulforhodamine B colorimetric assay; assay type: functional, cell-based
[2] = biological target: T1, Leucine--tRNA ligase, cytoplasmic (Homo sapiens, UniProt Q9P2J5); assay: Inhibition of catalytic activity of LRS (unknown origin) by aminoleucylation assay
Target sequence in this assay (Q9P2J5 whole entry): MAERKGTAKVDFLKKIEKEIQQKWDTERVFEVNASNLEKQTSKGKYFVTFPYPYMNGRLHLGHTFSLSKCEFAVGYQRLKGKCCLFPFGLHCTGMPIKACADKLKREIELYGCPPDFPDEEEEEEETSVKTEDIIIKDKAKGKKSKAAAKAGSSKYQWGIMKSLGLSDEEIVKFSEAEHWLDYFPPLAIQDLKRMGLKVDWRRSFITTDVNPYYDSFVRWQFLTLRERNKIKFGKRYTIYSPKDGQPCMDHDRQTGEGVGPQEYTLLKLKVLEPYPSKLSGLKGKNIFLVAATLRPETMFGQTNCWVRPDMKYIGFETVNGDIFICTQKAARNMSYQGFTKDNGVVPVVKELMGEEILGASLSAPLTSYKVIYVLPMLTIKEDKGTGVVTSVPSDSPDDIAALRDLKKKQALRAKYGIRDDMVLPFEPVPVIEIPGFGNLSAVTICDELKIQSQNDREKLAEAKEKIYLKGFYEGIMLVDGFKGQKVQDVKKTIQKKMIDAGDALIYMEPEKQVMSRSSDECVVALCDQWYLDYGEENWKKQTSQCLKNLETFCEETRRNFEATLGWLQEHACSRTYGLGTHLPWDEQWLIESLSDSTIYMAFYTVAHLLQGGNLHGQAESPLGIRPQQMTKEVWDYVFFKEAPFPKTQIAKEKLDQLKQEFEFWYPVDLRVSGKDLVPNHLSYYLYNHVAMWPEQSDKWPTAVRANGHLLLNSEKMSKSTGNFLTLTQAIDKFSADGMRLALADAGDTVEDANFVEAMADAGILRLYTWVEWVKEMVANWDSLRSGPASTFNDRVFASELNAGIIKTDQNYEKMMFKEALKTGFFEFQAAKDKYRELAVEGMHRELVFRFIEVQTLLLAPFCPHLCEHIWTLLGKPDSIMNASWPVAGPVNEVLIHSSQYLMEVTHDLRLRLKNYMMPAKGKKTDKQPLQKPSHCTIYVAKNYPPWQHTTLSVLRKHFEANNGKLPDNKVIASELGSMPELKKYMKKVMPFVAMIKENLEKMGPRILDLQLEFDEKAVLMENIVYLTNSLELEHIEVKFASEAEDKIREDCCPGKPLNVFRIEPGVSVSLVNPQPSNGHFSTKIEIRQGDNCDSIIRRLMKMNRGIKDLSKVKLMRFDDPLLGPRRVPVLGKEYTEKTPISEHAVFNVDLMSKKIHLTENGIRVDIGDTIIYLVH

[3] = system: A549; assay: Cytotoxicity in human A549 cells by sulforhodamine B colorimetric assay; assay type: functional, cell-based
[4] = system: HCT-116; assay: Cytotoxicity in human HCT-116 cells by sulforhodamine B colorimetric assay; assay type: functional, cell-based
[5] = biological target: T1, Leucine--tRNA ligase, cytoplasmic; assay: Inhibition of catalytic activity of LRS in HEK293 cells assessed as reduction in mTORC1 activation by measuring leucine-induced S6K phosphorylation at 12.5 to 200 uM by immunoblotting analysis; assay type: cell-based; details: dose 12.5-200 µM
Target sequence in this assay (Q9P2J5 whole entry, looked up): as the sequence (Q9P2J5 whole entry) above

[6] = system: SNU-638; assay: Cytotoxicity in human SNU-638 cells by sulforhodamine B colorimetric assay; assay type: functional, cell-based
[7] = system: MDA-MB-231; assay: Cytotoxicity in human MDA-MB-231 cells by sulforhodamine B colorimetric assay; assay type: functional, cell-based
[8] = system: SK-HEP1; assay: Cytotoxicity in human SK-HEP1 cells by sulforhodamine B colorimetric assay; assay type: functional, cell-based
[9] = system: MRC5; assay: Cytotoxicity in human MRC5 cells by sulforhodamine B colorimetric assay; assay type: cell-based
[10] = biological target: T2, mTORC1 (Homo sapiens) (UniProt P42345+Q8N122+Q9BVC4); assay: Inhibition of flag-tagged mTORC1 (unknown origin) at 200 uM; assay type: protein-complex assay
[11] = biological target: T2, mTORC1 (Homo sapiens); details: HEK293, dose 100.0 nM
Description: Inhibition of mTORC1 activation in HEK293 cells assessed as reduction leucine-induced S6K phosphorylation at 100 nM by immunoblotting analysis

T2 sequence (Q8N122 whole entry, looked up, other chains not shown): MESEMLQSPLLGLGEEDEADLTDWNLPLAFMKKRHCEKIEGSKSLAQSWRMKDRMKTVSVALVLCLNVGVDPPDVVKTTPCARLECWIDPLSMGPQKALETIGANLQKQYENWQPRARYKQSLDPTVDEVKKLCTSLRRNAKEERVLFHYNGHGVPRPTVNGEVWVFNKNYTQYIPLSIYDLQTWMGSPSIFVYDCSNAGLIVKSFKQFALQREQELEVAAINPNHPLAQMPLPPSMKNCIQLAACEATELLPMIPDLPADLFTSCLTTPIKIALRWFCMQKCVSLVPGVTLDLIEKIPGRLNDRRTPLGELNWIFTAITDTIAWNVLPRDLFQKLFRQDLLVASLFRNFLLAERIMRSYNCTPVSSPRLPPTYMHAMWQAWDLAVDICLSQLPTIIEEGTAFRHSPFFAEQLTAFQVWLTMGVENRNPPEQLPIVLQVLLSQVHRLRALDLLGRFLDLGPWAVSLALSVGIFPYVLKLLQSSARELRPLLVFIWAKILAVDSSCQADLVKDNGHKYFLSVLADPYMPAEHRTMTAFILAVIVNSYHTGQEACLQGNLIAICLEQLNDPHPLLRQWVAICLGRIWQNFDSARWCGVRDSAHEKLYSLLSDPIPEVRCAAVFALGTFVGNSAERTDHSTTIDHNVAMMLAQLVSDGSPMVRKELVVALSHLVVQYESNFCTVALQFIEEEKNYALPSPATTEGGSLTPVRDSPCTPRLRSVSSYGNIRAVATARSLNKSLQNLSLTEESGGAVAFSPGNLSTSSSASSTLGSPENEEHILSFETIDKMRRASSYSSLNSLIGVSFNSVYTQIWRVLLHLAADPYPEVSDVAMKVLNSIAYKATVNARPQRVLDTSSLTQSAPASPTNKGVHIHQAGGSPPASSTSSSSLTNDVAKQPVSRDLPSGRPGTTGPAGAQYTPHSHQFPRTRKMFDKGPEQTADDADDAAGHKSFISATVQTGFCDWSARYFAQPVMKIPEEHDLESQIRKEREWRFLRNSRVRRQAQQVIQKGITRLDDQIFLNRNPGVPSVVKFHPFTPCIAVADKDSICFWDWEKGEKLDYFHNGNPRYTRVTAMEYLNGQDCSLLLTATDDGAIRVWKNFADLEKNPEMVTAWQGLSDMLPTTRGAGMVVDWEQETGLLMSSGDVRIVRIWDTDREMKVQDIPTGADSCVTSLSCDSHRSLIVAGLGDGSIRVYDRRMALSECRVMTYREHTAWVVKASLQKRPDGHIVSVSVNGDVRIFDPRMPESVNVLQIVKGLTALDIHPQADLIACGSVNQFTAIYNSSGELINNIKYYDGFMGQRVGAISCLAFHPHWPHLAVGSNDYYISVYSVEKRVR
T2 sequence (Q9BVC4 whole entry, looked up, other chains not shown): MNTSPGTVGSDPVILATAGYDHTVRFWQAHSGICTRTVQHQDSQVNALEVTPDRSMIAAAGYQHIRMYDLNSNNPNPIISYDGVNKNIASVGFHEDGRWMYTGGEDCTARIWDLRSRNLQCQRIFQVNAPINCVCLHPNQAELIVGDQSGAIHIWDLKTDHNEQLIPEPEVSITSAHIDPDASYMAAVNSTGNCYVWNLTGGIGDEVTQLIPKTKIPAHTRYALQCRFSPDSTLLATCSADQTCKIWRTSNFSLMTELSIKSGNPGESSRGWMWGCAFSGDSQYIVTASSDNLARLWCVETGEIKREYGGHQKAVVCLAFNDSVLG

Row | SMILES | IC50 [2] [µM] | inhibition [5] | inhibition [10] | inhibition [11] | IC50 [1] [µM] | IC50 [3] [µM] | IC50 [4] [µM] | IC50 [6] [µM] | IC50 [7] [µM] | IC50 [8] [µM] | IC50 [9] [µM]
1 | COc1cc([C@@H]2c3cc4c(cc3[C@@H](O[C@@H]3O[C@@H]5CO[C@@H](C)O[C@H]5[C@H](O)[C@H]3O)[C@H]3COC(=O)[C@H]23)OCO4)cc(OC)c1O [ETOPOSIDE] | – | – | – | – | 1.79 | 0.24 | 1.25 | 0.56 | 7.35 | 0.25 | –
2 | CO[C@H]1C[C@@H]2CC[C@@H](C)[C@@](O)(O2)C(=O)C(=O)N2CCCC[C@H]2C(=O)O[C@H]([C@H](C)C[C@@H]2CC[C@@H](O)[C@H](OC)C2)CC(=O)[C@H](C)/C=C(\C)[C@@H](O)[C@@H](OC)C(=O)[C@H](C)C[C@H](C)/C=C/C=C/C=C/1C | – | – | – | Active | – | – | – | – | – | – | –

More lines, main results first:

Row | IC50 [2] [µM] | inhibition [5] | inhibition [10] | inhibition [11] | SMILES | IC50 [1] [µM] | IC50 [3] [µM] | IC50 [4] [µM] | IC50 [6] [µM] | IC50 [7] [µM] | IC50 [8] [µM] | IC50 [9] [µM]
3 | 0.0223 | inactive | – | – | CC(C)C[C@H](N)C(=O)NS(=O)(=O)OC[C@H]1O[C@@H](n2cnc3c(N)ncnc32)[C@H](O)[C@@H]1O [LEUSA] | 0.4 | 0.59 | 0.24 | 0.84 | 0.73 | 0.54 | 5.9
4 | 0.337 | Dose-dependent effect | inactive | – | CC(C)C[C@H](O)C(=O)NS(=O)(=O)OC[C@H]1O[C@@H](n2cnc3c(N)nc(I)nc32)[C@H](O)[C@@H]1O | 1.06 | 1.75 | 0.54 | 5.7 | 12.6 | 5.63 | > 50
5 | 0.07 | Dose-dependent effect | inactive | – | CC(C)[C@@H](O)[C@H](O)C(=O)NS(=O)(=O)OC[C@H]1O[C@@H](n2cnc3c(N)ncnc32)[C@H](O)[C@@H]1O | 2.22 | 1.64 | 1.44 | 8.98 | 7.01 | 6.81 | > 50
